Values of other authors, collected in patent US20050163829A1, “Device and patch for controlled release of vanillin” (priority 2001, published 2005).

Assays:
[1] = system: GABA receptor
[2] = system: glutamate receptors (KA)
[3] = system: glutamate receptors (NMDA)
[4] = system: nicotinic acetylcholine receptor (nACh)

| SMILES | effect on the GABA receptor [1] | effect on the glutamate receptor KA [2] | effect on the glutamate receptor NMDA [3] | effect on the nicotinic acetylcholine receptor (nACh) [4] |
| --- | --- | --- | --- | --- |
| CC(C)=CCC/C(C)=C/CO [geraniol] | stimulate |  |  |  |
| CCCCOC(C)=O [butyl acetate] | stimulate |  |  |  |
| COc1cc(C=O)ccc1O [Vanillin, 3 methoxy-4 hydroxybenzaldehyde] | inhibited | inhibitory effect | inhibitory effect | inhibited |
